From patent publication US8192962B2, “Processes for detecting toxic substances” (Daikin Industries, Ltd., priority 2001, dated 2012)

Tested on: Metabolism protein genes
Assay: DNA chip mRNA expression in yeast, metabolism protein genes (Table 7)
Type: cell-based, Saccharomyces cerevisiae S288C
Summary of the method: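 In this screen, yeast in logarithmic growth are challenged for two hours with a toxic substance at a non-lethal inhibitory concentration. Their mRNA, converted to Cy3- or Cy5-labeled cDNA, hybridizes at 65° C. to a chip spanning every yeast gene, and expression is expressed as a ratio to untreated cells.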

CCCCCCCCCCCCc1ccc(S(=O)(=O)[O-])cc1.[Na+] [(17), sodium dodecylbenzosulfonate]
The level of expressed mRNA in the presence of chemical substance/The level of expressed mRNA in the absence of chemical substance (yeast gene YJR155W): 1.3 | The level of expressed mRNA in the presence of chemical substance/The level of expressed mRNA in the absence of chemical substance (yeast gene YKL035W): 1.0 | level of expressed mRNA in the presence/in the absence of chemical substance (yeast gene YKL060C): 1.2 | The level of expressed mRNA in the presence of chemical substance/The level of expressed mRNA in the absence of chemical substance (yeast gene YKL091C): 1.4 | The level of expressed mRNA in the presence of chemical substance/The level of expressed mRNA in the absence of chemical substance (yeast gene YKL104C): 1.0 | level of expressed mRNA in the presence/in the absence of chemical substance (yeast gene YKL148C): 0.8 | The level of expressed mRNA in the presence of chemical substance/The level of expressed mRNA in the absence of chemical substance (yeast gene YKL152C): 1.1 | level of expressed mRNA in the presence/in the absence of chemical substance (yeast gene YKL157W): 1.2 | The level of expressed mRNA in the presence of chemical substance/The level of expressed mRNA in the absence of chemical substance (yeast gene YKL213C): 1.4 | The level of expressed mRNA in the presence of chemical substance/The level of expressed mRNA in the absence of chemical substance (yeast gene YKL215C): 0.8 | level of expressed mRNA in the presence/in the absence of chemical substance (yeast gene YKR034W): 0.8 | The level of expressed mRNA in the presence of chemical substance/The level of expressed mRNA in the absence of chemical substance (yeast gene YLL058W): 1.4 | level of expressed mRNA in the presence/in the absence of chemical substance (yeast gene YLR006C): 1.6 | level of expressed mRNA in the presence/in the absence of chemical substance (yeast gene YLR044C): 0.9 | level of expressed mRNA in the presence/in the absence of chemical substance (yeast gene YLR056W): 1.1 | level of expressed mRNA in the presence/in the absence of chemical substance (yeast gene YLR058C): 0.8 | level of expressed mRNA in the presence/in the absence of chemical substance (yeast gene YLR081W): 0.7 | level of expressed mRNA in the presence/in the absence of chemical substance (yeast gene YLR089C): 1.2 | The level of expressed mRNA in the presence of chemical substance/The level of expressed mRNA in the absence of chemical substance (yeast gene YLR180W): 0.8 | The level of expressed mRNA in the presence of chemical substance/The level of expressed mRNA in the absence of chemical substance (yeast gene YLR273C): 1.0 | level of expressed mRNA in the presence/in the absence of chemical substance (yeast gene YLR284C): 2.9 | The level of expressed mRNA in the presence of chemical substance/The level of expressed mRNA in the absence of chemical substance (yeast gene YLR299W): 1.3 | The level of expressed mRNA in the presence of chemical substance/The level of expressed mRNA in the absence of chemical substance (yeast gene YLR300W): 0.7 | level of expressed mRNA in the presence/in the absence of chemical substance (yeast gene YLR304C): 0.5 | The level of expressed mRNA in the presence of chemical substance/The level of expressed mRNA in the absence of chemical substance (yeast gene YLR307W): 1.1 | The level of expressed mRNA in the presence of chemical substance/The level of expressed mRNA in the absence of chemical substance (yeast gene YLR348C): 1.1 | level of expressed mRNA in the presence/in the absence of chemical substance (yeast gene YLR354C): 1.0 | level of expressed mRNA in the presence/in the absence of chemical substance (yeast gene YLR372W): 0.5 | level of expressed mRNA in the presence/in the absence of chemical substance (yeast gene YML022W): 0.5 | The level of expressed mRNA in the presence of chemical substance/The level of expressed mRNA in the absence of chemical substance (yeast gene YML054C): 1.1 | The level of expressed mRNA in the presence of chemical substance/The level of expressed mRNA in the absence of chemical substance (yeast gene YML070W): 1.2 | The level of expressed mRNA in the presence of chemical substance/The level of expressed mRNA in the absence of chemical substance (yeast gene YML100W): 1.0 | The level of expressed mRNA in the presence of chemical substance/The level of expressed mRNA in the absence of chemical substance (yeast gene YMR008C): 3.0 | level of expressed mRNA in the presence/in the absence of chemical substance (yeast gene YMR011W): 1.3 | level of expressed mRNA in the presence/in the absence of chemical substance (yeast gene YMR015C): 1.0 | The level of expressed mRNA in the presence of chemical substance/The level of expressed mRNA in the absence of chemical substance (yeast gene YMR020W): 2.3 | level of expressed mRNA in the presence/in the absence of chemical substance (yeast gene YMR083W): 0.9 | The level of expressed mRNA in the presence of chemical substance/The level of expressed mRNA in the absence of chemical substance (yeast gene YMR105C): 1.6 | The level of expressed mRNA in the presence of chemical substance/The level of expressed mRNA in the absence of chemical substance (yeast gene YMR189W): 1.0 | level of expressed mRNA in the presence/in the absence of chemical substance (yeast gene YMR205C): 0.6 | level of expressed mRNA in the presence/in the absence of chemical substance (yeast gene YMR261C): 0.7 | The level of expressed mRNA in the presence of chemical substance/The level of expressed mRNA in the absence of chemical substance (yeast gene YMR271C): 1.3 | The level of expressed mRNA in the presence of chemical substance/The level of expressed mRNA in the absence of chemical substance (yeast gene YMR296C): 0.8 | level of expressed mRNA in the presence/in the absence of chemical substance (yeast gene YMR323W): 1.1 | The level of expressed mRNA in the presence of chemical substance/The level of expressed mRNA in the absence of chemical substance (yeast gene YNL012W): 1.3 | level of expressed mRNA in the presence/in the absence of chemical substance (yeast gene YNL025C): 0.7 | The level of expressed mRNA in the presence of chemical substance/The level of expressed mRNA in the absence of chemical substance (yeast gene YNL045W): 1.1 | The level of expressed mRNA in the presence of chemical substance/The level of expressed mRNA in the absence of chemical substance (yeast gene YNL104C): 0.9 | The level of expressed mRNA in the presence of chemical substance/The level of expressed mRNA in the absence of chemical substance (yeast gene YNL106C): 1.1 | The level of expressed mRNA in the presence of chemical substance/The level of expressed mRNA in the absence of chemical substance (yeast gene YNL169C): 1.1 | level of expressed mRNA in the presence/in the absence of chemical substance (yeast gene YNL192W): 2.3 | The level of expressed mRNA in the presence of chemical substance/The level of expressed mRNA in the absence of chemical substance (yeast gene YNL231C): 3.1 | The level of expressed mRNA in the presence of chemical substance/The level of expressed mRNA in the absence of chemical substance (yeast gene YNL322C): 0.9 | The level of expressed mRNA in the presence of chemical substance/The level of expressed mRNA in the absence of chemical substance (yeast gene YNL331C): 1.7 | The level of expressed mRNA in the presence of chemical substance/The level of expressed mRNA in the absence of chemical substance (yeast gene YNL332W): 1.0 | The level of expressed mRNA in the presence of chemical substance/The level of expressed mRNA in the absence of chemical substance (yeast gene YNR019W): 2.4 | The level of expressed mRNA in the presence of chemical substance/The level of expressed mRNA in the absence of chemical substance (yeast gene YNR033W): 0.9 | The level of expressed mRNA in the presence of chemical substance/The level of expressed mRNA in the absence of chemical substance (yeast gene YNR059W): 2.6 | The level of expressed mRNA in the presence of chemical substance/The level of expressed mRNA in the absence of chemical substance (yeast gene YOL058W): 1.2 | level of expressed mRNA in the presence/in the absence of chemical substance (yeast gene YOL086C): 1.1 | level of expressed mRNA in the presence/in the absence of chemical substance (yeast gene YOL108C): 1.5 | level of expressed mRNA in the presence/in the absence of chemical substance (yeast gene YOL116W): 1.1 | The level of expressed mRNA in the presence of chemical substance/The level of expressed mRNA in the absence of chemical substance (yeast gene YOL126C): 1.6 | The level of expressed mRNA in the presence of chemical substance/The level of expressed mRNA in the absence of chemical substance (yeast gene YOL153C): 1.1 | level of expressed mRNA in the presence/in the absence of chemical substance (yeast gene YOL156W): 0.9 | The level of expressed mRNA in the presence of chemical substance/The level of expressed mRNA in the absence of chemical substance (yeast gene YOL165C): 1.6 | level of expressed mRNA in the presence/in the absence of chemical substance (yeast gene YOR002W): 0.9 | level of expressed mRNA in the presence/in the absence of chemical substance (yeast gene YOR085W): 0.9 | The level of expressed mRNA in the presence of chemical substance/The level of expressed mRNA in the absence of chemical substance (yeast gene YOR099W): 1.2 | level of expressed mRNA in the presence/in the absence of chemical substance (yeast gene YOR103C): 1.1 | level of expressed mRNA in the presence/in the absence of chemical substance (yeast gene YOR108W): 1.1 | level of expressed mRNA in the presence/in the absence of chemical substance (yeast gene YOR128C): 1.2 | The level of expressed mRNA in the presence of chemical substance/The level of expressed mRNA in the absence of chemical substance (yeast gene YOR130C): 1.5 | level of expressed mRNA in the presence/in the absence of chemical substance (yeast gene YOR142W): 0.9 | level of expressed mRNA in the presence/in the absence of chemical substance (yeast gene YOR176W): 1.2 | level of expressed mRNA in the presence/in the absence of chemical substance (yeast gene YOR178C): 1.0 | level of expressed mRNA in the presence/in the absence of chemical substance (yeast gene YOR251C): 0.9 | The level of expressed mRNA in the presence of chemical substance/The level of expressed mRNA in the absence of chemical substance (yeast gene YOR336W): 1.0 | The level of expressed mRNA in the presence of chemical substance/The level of expressed mRNA in the absence of chemical substance (yeast gene YOR347C): 1.7 | level of expressed mRNA in the presence/in the absence of chemical substance (yeast gene YOR348C): 0.9 | The level of expressed mRNA in the presence of chemical substance/The level of expressed mRNA in the absence of chemical substance (yeast gene YPL017C): 1.3 | level of expressed mRNA in the presence/in the absence of chemical substance (yeast gene YPL028W): 1.4 | level of expressed mRNA in the presence/in the absence of chemical substance (yeast gene YPL057C): 2.2 | level of expressed mRNA in the presence/in the absence of chemical substance (yeast gene YPL135W): 1.5 | level of expressed mRNA in the presence/in the absence of chemical substance (yeast gene YPL148C): 1.0 | The level of expressed mRNA in the presence of chemical substance/The level of expressed mRNA in the absence of chemical substance (yeast gene YPR026W): 0.9 | level of expressed mRNA in the presence/in the absence of chemical substance (yeast gene YPR113W): 1.2 | level of expressed mRNA in the presence/in the absence of chemical substance (yeast gene YPR165W): 2.3 | The level of expressed mRNA in the presence of chemical substance/The level of expressed mRNA in the absence of chemical substance (yeast gene YPR167C): 1.7 | level of expressed mRNA in the presence/in the absence of chemical substance (yeast gene YPR183W): 1.2
